Reference: patent publication US7198910B1, “Nucleic acid encoding melanin-concentrating hormone receptor” (Merck & Co., Inc., priority 1999, dated 2007)

Legend:
[1] = system: endogenous Xenopus receptor; experiment: Melanophore pigment aggregation control, endogenous melatonin response; format: cell-based, Xenopus laevis; settings: stimulating the endogenous Xenopus receptor
Experimental: (§1) For Gi-coupled responses, cell monolayers plated in 96-well microtiter plates were incubated in the presence of 100 μl/well of 70% L-15 media containing 2% fibroblast-conditioned growth medium, 2 mM glutamine, 100 μg/ml streptomycin, 100 units/ml penicillin and 15 mM HEPES, pH 7.3, for 15 minutes in readings at 600 nm were determined, followed by the addition of ligands. After a 1.5 hour incubation in the dark at room temperature final absorbances were determined. Absorbance readings were converted to transmission values to quantitate pigment dispersion using the following formula: 1−Tf/Ti, where Ti=the initial transmission at 600 nm and Tf=the final transmission at 600 nm.
(§2) The Xenopus melanophore system (Daniolos, et al., 1992. Pigment Cell Res. 3, 38–43) is based on the dispersion and aggregation of intracellular pigment granules in response to changes in intracellular second messenger molecules. Agonist activation of a recombinant Gs- or Gq-coupled receptor expressed heterologously in melanophores leads to pigment dispersion. […] Changes in the melanophore pigmentation show a dose-dependent correlation with the level of specific receptor activation, and can be quantified by the change in absorbance at 600 nm between the nonactivated and agonist-activated cells (Daniolos, et al., 1992. Pigment Cell Res. 3, 38–43). […]

[2] = system: endogenous melanophore thrombin receptor; experiment: Pigment aggregation in mock (non-receptor) transfected melanophores; format: cell-based, Xenopus laevis; settings: represents activation of endogenous thrombin receptor
Experimental: as §1, §2

Molecule | Aggregation response (control) [1] | Pigment aggregation response in mock (non-receptor) transfected melanophores [2]
COc1ccc2[nH]cc(CCNC(C)=O)c2c1 [melatonin] | positive aggregation response | 
thrombin |  | detected
